{"source": "patent US20240299358A1", "about": "“COMPOSITIONS AND METHODS FOR DIAGNOSIS AND TREATMENT OF AUTOIMMUNE DISEASES” (DUKE UNIVERSITY, priority 2021, published 2024)", "key": {"eHsp90 [1]": {"system": "eHsp90", "experiment": "In vivo imaging of eHsp90 expression in T cell transfer mouse model of IBD", "details": "10 nmoles IV", "procedure": "The T cell transfer model of IBD was utilized to evaluate the imaging potential of HS-131 for other autoimmune diseases. Naïve T cells isolated from female donor mice were transferred into SCID mice via IP injection. 3-5 weeks post transfer mice develop inflammation, an extended colon and epithelial hyperplasia. 24 hours post HS-131 tail vein injection mice were cryopreserved and imaged as previously mentioned. […] Experiments represent one mouse.\nIBD Disease: On study day 0, Balb/C mice were terminated, and spleens obtained for CD4+CD45RBhigh cell isolation. After cells had been sorted and obtained, each animal received an IP injection of at a minimum 4×10^5 cells (200 μl/mouse injections). […]\nCryoViz™ Imaging: Whole mice were imaged at 10.23 μm×10.23 μm in-plane resolution using an Olympus MVX-10 microscope with a 1X objective and 0.63× magnification and 40 μm section thickness, using the Cryo Viz™ (BioInVision, Inc., Cleveland, USA). CryoViz™ is a fully automated, serial sectioning-and-imaging system which provides 3-dimensional, tiled, microscopic anatomical bright field and molecular fluorescence images over large fields-of-view such as a whole mouse. Images were acquired using a dual band FITC/TxRed fluorescence filter (Chroma, Inc., Rockingham, VT), a liquid crystal RGB filter and a low-noise monochrome camera. […]"}, "eHsp90 [2]": {"system": "eHsp90", "experiment": "In vivo tracking of eHsp90 expression in CIA mouse model of RA (flow cytometry, CryoViz imaging)", "procedure": "FIG. 5A is a schematic of CIA mouse model of RA experimental design, wherein mice were inoculated with CIA on day 0) and 21. […] 6-hours post treatment mice were whole body cryopreserved. […] Gated regions indicate CD4 and CD8 T-Cell populations isolated from individual mice. eHsp90 expression in CD4 and CD8 T cells 6 hours post HS-131 or HS-198 treatment. N=3+SD. Experiments represent 3 biological replicates.\nCIA Disease: Collagen was prepared at 4 mg/ml in 0.01 N acetic acid. Equal volumes of 4 mg/ml collagen and 5 mg/ml Freund's complete adjuvant were emulsified by hand mixing with syringes for approximately 5 min, at which point a bead of this material holds its form when placed in water. On study days 0 and 21, animals were anesthetized with isoflurane and given intradermal injections of a total of 400 μg of type II collagen in Freund's complete adjuvant at the base of the tail.\nCryoViz™ Imaging: Whole mice were imaged at 10.23 μm×10.23 μm in-plane resolution using an Olympus MVX-10 microscope with a 1X objective and 0.63× magnification and 40 μm section thickness, using the Cryo Viz™ (BioInVision, Inc., Cleveland, USA). CryoViz™ is a fully automated, serial sectioning-and-imaging system which provides 3-dimensional, tiled, microscopic anatomical bright field and molecular fluorescence images over large fields-of-view such as a whole mouse. Images were acquired using a dual band FITC/TxRed fluorescence filter (Chroma, Inc., Rockingham, VT), a liquid crystal RGB filter and a low-noise monochrome camera. Raw images acquired by the Cryo Viz™ were processed to generate 3D color anatomical brightfield and molecular fluorescence volumes using the Cryo Viz™ Preprocessor software (BioIn Vision, Inc., Cleveland, Ohio). These 3D volumetric image data were then processed using the CryoViz™ 3D Visualizer software (BioInVision, Inc., Cleveland, USA) to obtain 3D reconstructed brightfield and fluorescence volume renderings and movies with 2D slice cutaway animations, showing the 2D/3D biodistribution of TxRed labeled HS-131 within the mouse volume.\nThis was consistently seen in cell culture, tumor cell xenografts and mouse models of spontaneous metastatic disease (Barrott et al. Chem Biol 20. 1187-1197 (2013)). […] To determine if this phenomenon occurred within the context of a fully functional immune system, the collagen induced arthritic (CIA) mouse model of human rheumatoid arthritis (RA) was utilized (Rice et al. Arthritis Rheum 58. 3765-3775 (2008)). Mice (DBA/IlacJ ˜8 weeks old) reliably develop polyarthritis when immunized against bovine type II collagen (Scarneo et al. Arthritis Res Ther 21, 292 (2019): Campbell et al., Ann Rheum Dis 56, 364-368 (1997)). The disease that occurs is usually non-symmetric, and any combination of paws/joints may be affected. Mice were injected […] with bovine collagen at Day (and then again 21 days later (FIG. 5A). This second injection triggered the development of the CIA related symptoms over the next several days within the joints. A primary mediator of local inflammatory responses in autoimmunity are invading T cell populations recognizing foreign antigens. To determine if invading T cells at sites of active disease expressed eHsp90, the animals were injected with HS-131 or HS-198. This was done at the peak of RA symptoms following the second immune challenge. After 6 hours, the animals were euthanized, immediately cryo-frozen in liquid nitrogen and cryo-sectioned (see, FIG. 5A).\nApproximately, 500 40 μm slices were made and each slice imaged with both bright field and by fluorescence at Ex640 nm/Em680 nm. Evaluation of the biodistribution was then made by histological examination of individual slices and after in silico reconstruction of the entire mouse anatomy (see, FIGS. 5B-5E)."}}, "note": "“Also recorded” adds a separate entry of the source."}
{"smiles": "Cc1nn(-c2ccc(C(N)=O)c(NCCCOCCOCCOCCOCCOCCCNCc3ccc(C(=C\\C=C4\\N(CCCCS(=O)(=O)[O-])c5ccccc5C4(C)C)/C=C/C4=[N+](CCCCS(=O)(=O)O)c5ccccc5C4(C)C)cc3)c2)c2c1C(=O)CC(C)(C)C2", "note": "[HS-131]", "values": [{"measurement": "uptake in joints or paws of IBD mouse", "setting": "eHsp90 [1]; 24 hours post injection", "value": "no uptake"}, {"measurement": "fluorescence from the inflamed bowels of IBD mouse", "setting": "eHsp90 [1]; 24 hours post injection (FIG. 7A)", "value": "extensive fluorescent signaling"}, {"measurement": "probe uptake in joints of naïve non diseased animal compared to CIA diseased animal", "setting": "eHsp90 [2]; 10 nmoles tail vein, 6 hours post injection (FIGS. 6A-6C)", "value": "no marked HS-131 in the joints"}, {"measurement": "systemic distribution in whole-body reconstruction of CIA mice", "setting": "eHsp90 [2]; 6 hours post tail vein injection", "value": "largely confined to areas of active immune cell invasion"}, {"measurement": "probe signal (eHsp90 expression) in T cells of PBMC populations from CIA mice by flow cytometry", "setting": "eHsp90 [2]; 6 hours post tail vein injection, CD4 and CD8 T cells (FIG. 5B)", "value": "pronounced eHsp90 expression"}, {"measurement": "probe localization in hind leg, knee, hip and paw of CIA mouse", "setting": "eHsp90 [2]; 6 hours post tail vein injection, cryo-sections (FIG. 5C)", "value": "marked increase"}, {"measurement": "fluorescence associated with the lower intestine of CIA mice", "setting": "eHsp90 [2]; 24 hours post HS-131 injection (FIG. 7B)", "value": "no discrete fluorescence"}, {"measurement": "route of elimination / clearance", "setting": "eHsp90 [2]; mice", "value": "via the hepatobiliary system and intestines; also recorded: exclusively eliminated through the biliary system and intestine; also recorded: rapid hepatobiliary clearance"}]}
